Like-named read-outs stand apart in the source and are kept apart here.
Legend:
[1] = test system: human dermal fibroblasts (HDFs); test: MTT cytotoxicity assay on normal human dermal fibroblasts (HDFs); assay type: cell-based; conditions: read-out: HDF EC50 (μM) ± SE
Protocol: (§1) The cytotoxic effects of DHA and LA derivatives against the breast cancer cell line (MCF-7) were assessed, with results compared to human dermal fibroblasts (HDFs) as a normal cell line. Both cell lines were provided by the Pasteur Institute of Iran (IPI). The cells were cultured in RPMI medium containing 10% fetal bovine serum (FBS) and 1% antibiotic solution (comprising 10,000 units of penicillin and 10 mg streptomycin in 0.9% NaCl). The cultures were incubated at 37°C with 5% CO2.
(§2) The MTT assay was used as a standard method for evaluating the inhibitory effect of compounds. This colorimetric assay is based on the conversion of yellow MTT (3-[4,5-dimethylthiazol-2-yl]-2,5-diphenyltetrazolium bromide) to purple formazan crystals via enzymatic reduction by NAD(P)H-dependent oxidoreductase enzymes in metabolically active cells ([35]). According to a previously reported method, after 24 hours of incubation of cells (15,000 cells per well), six different concentrations of D1-D8 (6.25 to 200 μM) and L1-L8 (3.125 to 100 μM) were added to the wells, with each concentration performed in triplicate. After 48 hours of incubation, the culture medium was completely removed from the wells. MTT solution, prepared at a concentration of 0.5 mg/mL in phosphate-buffered saline (PBS), was added (100 µL per well) and incubated for 4 hours to allow metabolically active cells to reduce the MTT to insoluble formazan crystals. Subsequently, 100 µL of solubilizing solvent containing 16% sodium dodecyl sulfate (SDS) was added to each well, followed by an additional 2 hours of incubation ([36]). Cell viability was determined using a Cell Imaging Multi-Mode Microplate Reader (Biotek, Cytation 3, USA), measuring absorbance at 570 nm ([37], [38]).

MCF-7 cells [2] = test: MTT cytotoxicity assay on breast adenocarcinoma (MCF-7) cells; assay type: cell-based, human; conditions: for EC50: read-out: MCF-7 EC50 (μM) ± SE; for Selectivity Index (SI), MCF-7: ratio of EC50 against fibroblasts to EC50 against MCF-7 cells
Protocol: as §1, §2

MCF-7 cells [3] = test: Annexin V-FITC/PI flow cytometry, apoptosis and necrosis; assay type: cell-based, human; conditions: MCF-7, annexin V-FITC/PI staining, ½x, x, 2x EC50
Protocol: Apoptosis and necrosis were measured using a dead cell apoptosis kit with annexin V-FITC and propidium iodide (PI) (ApoFlowExFITC, Exbio, Czech Republic) according to the manufacturer’s protocol. The MCF-7 cells were cultured as described in the cell culture section (section 3.3.1). […] Cells were collected through trypsinization, rinsed twice with PBS, and then resuspended in 500 μL of binding buffer. The cell suspensions were subsequently incubated with 5 μL of annexin V-FITC and 5 μL of PI for 10 minutes at room temperature in a dark environment. The cells were then assessed immediately using flow cytometry, and the data were analyzed using FlowJo version 7.6.5 (Tree Star, Inc., Ashland, USA).
A distinguishing characteristic of cells undergoing apoptosis is the translocation of phosphatidylserine from the inner to the outer layers of the plasma membrane, which can be identified by annexin V in this assay. The PI identifies necrotic cells with compromised plasma membranes ([39]-[44]).

MCF-7 breast cancer cell = test system: MCF-7 breast cancer cell; set-up: method as in PMID 31652764; conditions: MCF-7, MTT assay, 150 μM DHA; cited from earlier work
[4] = Fibroblast, MTT, 48 h incubation, normal human dermal fibroblasts
[5] = Homo sapiens, MCF7, MTT, 48 h incubation, MCF-7

Row | Molecule | EC50 [1, 4] | EC50 (MCF-7 cells [2]; [5]) | also measured
1 | 4-((4Z,7Z,10Z,13Z,16Z,19Z)-docosa-4,7,10,13,16,19-hexaen-1-yl)morpholine [Compound D3] |  |  | EC50 ([1]; MTT, 48 h incubation, normal human dermal fibroblasts): > 100 µM; EC50 (MCF-7 cells [2]; MTT, 48 h incubation, MCF-7): 16 ± 2.89 µM; mode of cell death (MCF-7 cells [3]): predominantly induced apoptosis rather than necrosis
2 | CC/C=C\C/C=C\C/C=C\C/C=C\C/C=C\C/C=C\CCC(=O)NCCO [Compound D1, (4Z,7Z,10Z,13Z,16Z,19Z)-N-(2-hydroxyethyl) docosa-4,7,10,13,16,19-hexaenamide] |  |  | EC50 ([1]; Homo sapiens, Fibroblast, 48 h): ≥ 100 µM; EC50 (MCF-7 cells [2]; Homo sapiens, MCF7, 48 h): ≥ 100 µM
3 | CC/C=C\C/C=C\C/C=C\C/C=C\C/C=C\C/C=C\CCC(=O)N(CCO)CCO [Compound D2, (4Z,7Z,10Z,13Z,16Z,19Z)-N,N-bis(2-hydroxyethyl)docosa-4,7,10,13,16,19-hexaenamide] | > 100 µM | ≥ 100 µM | 
4 | CC/C=C\C/C=C\C/C=C\C/C=C\C/C=C\C/C=C\CCC(=O)Nc1ccc(O)cc1 [Compound D4, (4Z,7Z,10Z,13Z,16Z,19Z)-N-(4-hydroxyphenyl)docosa-4,7,10,13,16,19-hexaenamide] | > 100 µM | 74.3 ± 1.41 µM | 
5 | CC/C=C\C/C=C\C/C=C\C/C=C\C/C=C\C/C=C\CCC(=O)NCCc1ccccc1 [Compound D5, (4Z,7Z,10Z,13Z,16Z,19Z)-N-phenethyldocosa-4,7,10,13,16,19-hexaenamide] |  | ≥ 100 µM | 
6 | CC/C=C\C/C=C\C/C=C\C/C=C\C/C=C\C/C=C\CCC(=O)N1CCN(C)CC1 [Compound D6, (4Z,7Z,10Z,13Z,16Z,19Z)-1-(4-methylpiperazin-1-yl) docosa-4,7,10,13,16,19-hexaen-1-one] |  | ≥ 100 µM | 
7 | CC/C=C\C/C=C\C/C=C\C/C=C\C/C=C\C/C=C\CCC(=O)NCC(O)CO (stereo not shown) [Compound D7, (4Z,7Z,10Z,13Z,16Z,19Z)-N-(2,3-dihydroxypropyl) docosa-4,7,10,13,16,19-hexaenamide] | > 100 µM | 98.6 ± 1.19 µM | 
8 | CC/C=C\C/C=C\C/C=C\C/C=C\C/C=C\C/C=C\CCC(=O)NCCN [Compound D8, (4Z,7Z,10Z,13Z,16Z,19Z)-N-(2-aminoethyl) docosa-4,7,10,13,16,19-hexaenamide] | > 100 µM | 86 ± 5.41 µM | 
9 | CCCCC/C=C\C/C=C\CCCCCCCC(=O)NCCO [Compound L1, (9Z,12Z)-N-(2-hydroxyethyl) octadeca-9,12-dienamide] |  | ≥ 100 µM | 
10 | CCCCC/C=C\C/C=C\CCCCCCCC(=O)N(CCO)CCO [Compound L2, (9Z,12Z)-N,N-bis(2-hydroxyethyl) octadeca-9,12-dienamide] |  | ≥ 100 µM | 
11 | CCCCC/C=C\C/C=C\CCCCCCCC(=O)N1CCOCC1 [Compound L3, (9Z,12Z)-1-morpholinooctadeca-9,12-dien-1-one] | ≥ 100 µM | 24.6 ± 1.81 µM | Selectivity Index (SI), MCF-7 (MCF-7 cells [2]): 6.88; mode of cell death (MCF-7 cells [3]): predominantly induced apoptosis rather than necrosis
12 | CCCCC/C=C\C/C=C\CCCCCCCC(=O)Nc1ccc(O)cc1 [Compound L4, (9Z,12Z)-N-(4-hydroxyphenyl) octadeca-9,12-dienamide] | ≥ 100 µM | 52.4 ± 6.79 µM | Selectivity Index (SI), MCF-7 (MCF-7 cells [2]): 3.53
13 | CCCCC/C=C\C/C=C\CCCCCCCC(=O)NCC(O)CO (stereo not shown) [Compound L7, (9Z,12Z)-N-(2,3-dihydroxypropyl) octadeca-9,12-dienamide] | 64.8 ± 5.72 µM | 19.2 ± 2.93 µM | Selectivity Index (SI), MCF-7 (MCF-7 cells [2]): 3.37; mode of cell death (MCF-7 cells [3]): predominantly induced apoptosis rather than necrosis
14 | CC/C=C\C/C=C\C/C=C\C/C=C\C/C=C\C/C=C\CCC(=O)O [DHA, docosahexaenoic acid] |  |  | cell viability (MCF-7 breast cancer cell): significantly reduced
15 | N.N.[Cl][Pt][Cl] [cisplatin, reference compound] |  |  | EC50 (MCF-7 cells [2]; MTT, 48 h incubation, MCF-7): 0.85 µM; Selectivity Index (SI), MCF-7 (MCF-7 cells [2]): 1.18

From paper PMC12297039, “Design, Synthesis, and Evaluation of Cytotoxic Effects of Functional Fatty Acid Derivatives as Potential Antineoplastic Agents for Breast Cancer” (Iranian Journal of Pharmaceutical Research : IJPR, 2025)
